Test results as given in patent US9067918B2, “Crystalline forms of 2-(2-methylamino-pyrimidin-4-yl)-1H-indole-5-carboxylic acid [ (S)-1-carbamoyl-2-(phenyl-pyrimidin-2-yl-amino)-ethyl ]-amide” (Sanofi, priority 2011, dated 2015).

Experiments:
Assay type in all cases: physicochemical
Solubility (qualitative) = conditions: qualitative statement; for solubility compared with polymorph 1: solvent not stated
Thermogravimetry (TG) = conditions: for TG weight loss: until the melting point
Experimental: Thermogravimetric analyses were performed with a METTLER TGA851e instrument. 100 μl Al-crucibles with sealed lid and hole were used and the measurements performed in a nitrogen gas flow of 50 ml/min. The measured data were evaluated with the software STARe V8.10. TG measurements with infra-red (IR) spectroscopic analysis of volatiles were performed with a METTLER TGA851e instrument as described, which was coupled to a Thermo-Nicolet 380 FT-IR spectrometer equipped with a cell for gas phase measurements. The measured IR spectra were evaluated using the software OMNIC V.7.3. In the TG analyses of polymorph 1 and polymorph 2 of compound I until the melting point, insignificant weight losses of 0.2% and 0.7%, respectively, were observed. In the TG analysis of hydrate 1 of compound I, a gradual weight loss of 6.4% was observed between room temperature and 120° C. […] The observed weight loss corresponds to about 1.9 mol of water per mol of 2-(2-methylamino-pyrimidin-4-yl)-1H-indole-5-carboxylic acid [(S)-1-carbamoyl-2-(phenyl-pyrimidin-2-yl-amino)-ethyl]-amide. In the TG FT-IR analysis of hydrate 2 of compound I, a weight loss of 17-18% of water mainly in two steps was observed between room temperature and 140° C., which corresponds to about 6 mol of water per mol of 2-(2-methylamino-pyrimidin-4-yl)-1H-indole-5-carboxylic acid [(S)-1-carbamoyl-2-(phenyl-pyrimidin-2-yl-amino)-ethyl]-amide.

[1] = Dynamic vapor sorption (DVS), determination of hygroscopicity; conditions: for hygroscopicity, water uptake: at a high relative humidity of 80%; for weight increase in sorption step: 25° C.
Experimental: For the determination of the hygroscopicity, moisture sorption/desorption isotherms were recorded on a Surface Measurement Systems DVS-1 instrument. […] The data were evaluated with the software DVSWin V.2.15. In the DVS analysis of polymorph 1 and polymorph 2 of compound I, in the sorption steps of the two cycles the following weight increases were observed.

[2] = Determination of solubility in a mixture of acetone and water (4:1, by volume); conditions: acetone/water 4:1 by volume
Experimental: For the determination of the solubility in a mixture of acetone and water (4:1, by volume), samples of 0.5 mg to 50 mg of the test substances were suspended in a defined amount of the solvent (800 mg to 1200 mg) in screw cap vials with a magnetic stirring bar, which were placed in a temperature-controlled multiple stirring device equipped for transmission measurement (Avantium Crystal 16). With stirring at 700 rpm, the vials were cooled from room temperature to 0° C. and then heated to 60° C. with a heating rate of 3° C./h, kept at 60° C. for 2 h and cooled again to 0° C. with a cooling rate of 3° C./h. By means of transmission measurement it was determined whether the sample was dissolved (100% transmission), or crystals were present. For polymorph 1, polymorph 2, hydrate 1 and hydrate 2 of compound I the following solubilities in a mixture of acetone and water (4:1, by volume) were determined.

[3] = Maturation experiments (slurry conversion), relative stability of crystalline forms
Experimental: By maturation experiments (slurry conversion) at 20° C. the relative stability of polymorphs 1 and 2 and hydrate 1 was investigated.
A polymorph mixture of 81 mg (Mixture of Polymorph 1 and Polymorph 2), 83 mg of Polymorph 1 and 60 mg of hydrate 1 was prepared. The mixture was subjected to XRPD analysis to confirm the presence of all three polymorphs and then distributed into five capillaries. These samples were kept in suspension at 20° C. for five days. After X-ray powder diffraction measurement of the suspensions these were dried over night at 40° C. and <100 mbar and again subjected to X-ray diffraction. Maturation experiments (a) to (e) were performed under the specified conditions, starting with the polymorph mixture described above.

[4] = relative humidity 40%, first value (cycle 1)
[5] = relative humidity 40%, second value (cycle 2)
[6] = relative humidity 60%, first value (cycle 1)
[7] = relative humidity 60%, second value (cycle 2)
[8] = relative humidity 80%, first value (cycle 1)
[9] = relative humidity 80%, second value (cycle 2)
[10] = relative humidity 95%, first value (cycle 1)
[11] = relative humidity 95%, second value (cycle 2)

Row | solubility compared with polymorph 1 (Solubility (qualitative)) | TG weight loss (Thermogravimetry (TG)) [%] | hygroscopicity, water uptake [1] | weight increase in sorption step [1, 4] | weight increase in sorption step [1, 5] | weight increase in sorption step [1, 6] | weight increase in sorption step [1, 7] | weight increase in sorption step [1, 8] | weight increase in sorption step [1, 9] | weight increase in sorption step [1, 10] [%] | weight increase in sorption step [1, 11] [%] | SMILES | further results
1 | higher solubility than polymorph 1 |  |  |  |  |  |  |  |  |  |  | CNc1nccc(-c2cc3cc(C(=O)N[C@@H](CN(c4ccccc4)c4ncccn4)C(N)=O)ccc3[nH]2)n1 [Hydrate 1, 2-(2-methylamino-pyrimidin-4-yl)-1H-indole-5-carboxylic acid [(S)-1-carbamoyl-2-(phenyl-pyrimidin-2-yl-amino)-ethyl]-amide dihydrate] | TG weight loss (water) (Thermogravimetry (TG); between room temperature and 120° C.): 6.4%; hygroscopicity ([1]; qualitative statement): low hygroscopicity; Solubility [g in 100 g of solvent] ([2]; 38.6° C.): 2.11 g in 100 g of solvent; Solubility [g in 100 g of solvent] ([2]; 49.7° C.): 3.39 g in 100 g of solvent; Solubility [g in 100 g of solvent] ([2]; 57.4° C.): 5.04 g in 100 g of solvent
2 | higher solubility than polymorph 1 | 0.7 | about 0.4% | 0.2% | 0.0% | 0.3% | 0.1% | 0.4% | 0.3% | 0.8 | 0.6 | CNc1nccc(-c2cc3cc(C(=O)N[C@@H](CN(c4ccccc4)c4ncccn4)C(N)=O)ccc3[nH]2)n1 [Polymorph 2, 2-(2-methylamino-pyrimidin-4-yl)-1H-indole-5-carboxylic acid [(S)-1-carbamoyl-2-(phenyl-pyrimidin-2-yl-amino)-ethyl]-amide] | Solubility [g in 100 g of solvent] ([2]; 46.0° C.): 1.02 g in 100 g of solvent; Solubility [g in 100 g of solvent] ([2]; 57.5° C.): 2.48 g in 100 g of solvent
3 |  |  |  |  |  |  |  |  |  |  |  | CNc1nccc(-c2cc3cc(C(=O)N[C@@H](CN(c4ccccc4)c4ncccn4)C(N)=O)ccc3[nH]2)n1 [Hydrate 2, 2-(2-methylamino-pyrimidin-4-yl)-1H-indole-5-carboxylic acid [(S)-1-carbamoyl-2-(phenyl-pyrimidin-2-yl-amino)-ethyl]-amide hexahydrate] | TG weight loss (water) (Thermogravimetry (TG); between room temperature and 140° C., mainly in two steps): 17-18%; Solubility [g in 100 g of solvent] ([2]; 36.8° C.): 0.50 g in 100 g of solvent; Solubility [g in 100 g of solvent] ([2]; 46.1° C.): 1.02 g in 100 g of solvent; Solubility [g in 100 g of solvent] ([2]; 55.9° C.): 2.61 g in 100 g of solvent
4 |  | 0.2 | about 0.9% | 0.5%/0.5% | 0.5%/0.5% | 0.6%/0.6% | 0.6%/0.6% | 0.9%/0.9% | 0.9%/0.9% | 1.3 | 1.4 | CNc1nccc(-c2cc3cc(C(=O)N[C@@H](CN(c4ccccc4)c4ncccn4)C(N)=O)ccc3[nH]2)n1 [Polymorph 1, 2-(2-methylamino-pyrimidin-4-yl)-1H-indole-5-carboxylic acid [(S)-1-carbamoyl-2-(phenyl-pyrimidin-2-yl-amino)-ethyl]-amide] | solubility in water (Solubility (qualitative)): low solubility in water; Solubility [g in 100 g of solvent] ([2]; 36.9° C.): 0.43 g in 100 g of solvent; Solubility [g in 100 g of solvent] ([2]; 44.7° C.): 0.50 g in 100 g of solvent; Solubility [g in 100 g of solvent] ([2]; 60.0° C.): 0.85 g in 100 g of solvent; thermodynamic stability among the polymorphs ([3]; at temperatures above about 20° C., confirmed in phase conversion experiments): thermodynamically most stable polymorph; thermodynamic stability among polymorphs 1, 2 and hydrate 1 ([3]; maturation experiments (a) to (e) at 20° C.): thermodynamically most stable
